From patent publication US9968541B2, “Optical treatment methods” (ON Light Sciences Inc., priority 2011, dated 2018)
“Also recorded” adds a separate entry of the source.

Legend:
[1] = system: cavitation-induced whitening immediately after laser treatment of tattoos; test: Pilot study: topical perfluorodecalin by cotton swab prior to each laser pass in tattoo removal; type: in vivo, patients
Method: Results of a pilot study related to the disclosure will be first released publicly in April 2012. The pilot study included tattoo removal with repeated laser exposures in one session, in which the need for 20-minute treatment intervals was eliminated. The pilot study was conducted at the Laser & Skin Surgery Center of New York (New York, N.Y.), under the direction of Roy G. Geronemus MD. […] A treatment delay of twenty minutes for resolution of whitening limited practicality of the technique, requiring up to eighty minutes of treatment time per visit. Medical grade, sterile perfluorodecalin, an inert, non-toxic liquid fluorocarbon with properties including optical clarity and gas-carrying capacity, was evaluated in the pilot study in an effort to speed resolution of cavitation-induced whitening immediately after laser treatment of tattoos. Perfluorodecalin may increase the optical penetration of lasers. The pilot study was performed in consenting patients with unwanted tattoos. Each tattoo was treated in whole or part with topical perfluorodecalin by cotton swab prior to each laser pass. Lasers and settings were selected by a dermatologist. During and after treatments, extent and duration of whitening reaction was assessed as well as appearance of adverse effects, including pigmentary change or scarring. […] In fifteen tattoos, perfluorodecalin was applied prior to each laser pass and the tattoo was treated with three Q-switched ruby laser passes immediately following one another in a single session. In five tattoos, a portion was treated with perfluorodecalin prior to a single pass of Q-switched ruby or Nd:YAG laser. […] After each laser pass, the whitening reaction resolved within five seconds of perfluorodecalin application. All treatments were well-tolerated with local anesthesia.

[2] = as described by Tsai; cited from earlier work
[3] = cited from earlier work

In the case of FC1(F)C(F)(F)C(F)(F)C2(F)C(F)(F)C(F)(F)C(F)(F)C(F)(F)C2(F)C1(F)F (stereo not drawn) [perfluorodecalin], the “time for whitening reaction to resolve after perfluorodecalin application” value ([1]; after each laser pass, Q-switched ruby or Nd:YAG laser, topical by cotton swab, patients' tattoos) is reported as “five”, the “adverse effects (including pigmentary change or scarring)” value ([1]; follow-up at 3-6 weeks) is reported as “no adverse effects occurred” and the “healing (amount of blistering, crusting or other changes) compared with previous treatments” value ([1]; subject-reported) is reported as “normal to improved healing”. For the same compound, the “resolution of post-laser whitening” value ([1]; topical application with cotton swab, laser therapy of tattoos) was “effectively resolve whitening in laser therapy within seconds; also recorded: resolves post-laser whitening within seconds”, the “treatment time for multiple passes in a single session” value ([1]; up to four passes in a single session, compared to about 80 minutes with R20) was “about 5 minutes” and the tolerability of treatments ([1]; with local anesthesia, perfluorodecalin prior to each laser pass) was “well-tolerated”. For the same compound, the toxicity [2] was “non-toxic”, the solubility in water ([3]; as described by Tsai) was “very low solubility in water” and the “thermal stability (stable up to)” value ([3]; generally regarded) was “about 400 °C”.
